Data published in ChEMBL document CHEMBL2203023, “Synopsis of some recent tactical application of bioisosteres in drug design” (J Med Chem, 2011).
One block for each compound: values may come before it.

Legend:
physchem [1] = assay: physchem
[2] = test system: Human immunodeficiency virus 1; assay: microbe, parasite or virus in culture
Platelet [3] = assay: cells; details: Homo sapiens, Plasma
Platelet [4] = assay: cells; details: Homo sapiens, Plasma; remark: listed apart in the source
physchem [5] = details: octanol/water
Syrian golden hamster = assay: animal or person; details: Mesocricetus auratus
in vivo [6] = details: rat, po
in vitro [7] = details: human, Caco-2
in vitro [8] = details: mouse, liver microsomes
physchem [9] = assay: physchem; remark: listed apart in the source
in vitro [10] = details: human, Caco-2; remark: listed apart in the source
physchem [11] = details: octanol/water, pH 7.4
cells = details: Homo sapiens, Platelet, Plasma
[12] = test system: Respiratory syncytial virus; assay: microbe, parasite or virus in culture; details: human respiratory syncytial virus
in vitro [13] = details: human, liver microsomes
in vitro [14] = details: human, liver microsomes; remark: listed apart in the source
clinical = details: human, in vivo
Rattus norvegicus = species on record: Rattus norvegicus; assay: animal or person; details: read-out: INH
in vitro [15] = details: rat, liver microsomes
physchem [16] = details: octanol/water, pH 7.4; remark: listed apart in the source
in vivo [17] = details: rat

SMILES: O=C1N(Cc2ccc(CO)cc2)[C@H](Cc2ccccc2)[C@H](O)[C@@H](O)[C@@H](Cc2ccccc2)N1Cc1ccc(CO)cc1 [DMP-323]
- EC90 [2]: 57 nM

SMILES: O=C(O)COc1cccc(/C=C\c2nc(-c3ccccc3)c(-c3ccccc3)o2)c1
- EC50 (Platelet [3]): 180 nM
- EC50 (Platelet [4]): 180 nM

SMILES: O=C(N[C@H]1c2ccccc2C[C@H]1O)[C@H](Cc1ccccc1)C[Si](O)(O)C[C@@H](Cc1ccccc1)C(=O)N[C@H]1c2ccccc2C[C@H]1O
- EC90 [2]: 170 nM

SMILES: O=C1[C@H](CC[C@H](O)c2ccc(F)cc2)[C@@H](c2ccc(O)cc2)N1c1ccc(F)cc1 [EZETIMIBE]
- ED50 (Syrian golden hamster): 0.04 mg/kg

SMILES: O=C(O)COc1cccc(-c2ncoc2-c2nc(-c3ccccc3)c(-c3ccccc3)o2)c1
- EC50 (Platelet [3]): 160 nM
- EC50 (Platelet [4]): 160 nM

SMILES: COC(=O)N[C@@H](C(=O)NCCCC[C@H](CO)N(CC(C)C)S(=O)(=O)c1ccc(CN)cc1)C(c1ccccc1)c1ccccc1
- EC50 [2]: 30 nM

SMILES: CCc1cc(C#N)ccc1Nc1c(N[C@H](C)C(C)(C)C)c(=O)c1=O
- bioavailability (in vivo [6]): 70%

SMILES: O=C(O)CCc1cccc(CCc2nc(-c3ccccc3)c(-c3ccccc3)o2)c1
- EC50 (cells): 16000 nM

SMILES: C=C(C)n1c(=O)n(Cc2nc3ccccc3n2CCCC#N)c2cnccc21
- EC50 [12]: 3 nM
- half-life (in vitro [13]): 11 min

SMILES: O=C(O)/C=C/c1cccc(CCc2nc(-c3ccccc3)c(-c3ccccc3)o2)c1
- EC50 (cells): 660 nM

SMILES: COc1ccc(C(CN(C)C)C2(O)CCCCC2)cc1 (racemic) [VENLAFAXINE]
- logP (physchem [5]): 3.13
- logD (physchem [11]): 0.88

SMILES: COc1ccc(C(CN(C)C)[Si]2(O)CCCCC2)cc1 (racemic)
- pKa (physchem [1]): 9.7
- logP (physchem [5]): 3.21
- logD (physchem [11]): 0.92

SMILES: O=S(=O)(Nc1ccncc1Oc1ccccc1)C(F)(F)F
- inhibition in vivo at 30 mg/kg (Rattus norvegicus): 54.1%

SMILES: O=C(O)COc1cccc(-c2ocnc2-c2nc(-c3ccccc3)c(-c3ccccc3)o2)c1
- EC50 (Platelet [3]): 27 nM
- EC50 (Platelet [4]): 27 nM

SMILES: COc1ccc(C2[C@@H](CCCc3ccccc3)C(=O)N2c2ccc(OC)cc2)cc1 (stereo not given in full)
- ED50 (Syrian golden hamster): 2.2 mg/kg

SMILES: O=C(O)/C=C/c1cccc(OCc2nc(-c3ccccc3)c(-c3ccccc3)o2)c1
- EC50 (cells): 14000 nM

SMILES: O=C(O)COc1cccc(OCc2nc(-c3ccccc3)c(-c3ccccc3)o2)c1
- EC50 (cells): 1200 nM

SMILES: O=C(N[C@H]1c2ccccc2C[C@H]1O)[C@H](Cc1ccccc1)CC(O)C[C@@H](Cc1ccccc1)C(=O)N[C@H]1c2ccccc2C[C@H]1O
- EC90 [2]: 23 nM

SMILES: O=C(O)CCc1cccc(OCc2nc(-c3ccccc3)c(-c3ccccc3)o2)c1
- EC50 (cells): > 80000 nM

Continued, values first:

- pKa (physchem [1]): 7.12
SMILES: Oc1c(F)cccc1F

- logP (physchem [5]): 1.01
SMILES: NCc1ccc(F)c(O)c1F

- logP (physchem [5]): 3.56
SMILES: O=C(c1ccccc1)c1ccn(-c2cc(F)c(O)c(F)c2)c1

- Papp (in vitro [7]): 7.41 ×10⁻⁶ cm/s
SMILES: Cc1nccn1-c1ccc(NC(=O)c2cc(C(F)(F)F)nn2-c2ccc3onc(N)c3c2)c(F)c1

- microsomal CLint (in vitro [8]): 147 µL/min/mg
- solubility (physchem [9]): 270 µg/mL
SMILES: CN(C)CCCC1(c2ccc(C(C)(C)C)cc2)COC1

- logP (physchem [5]): 1.01
SMILES: NCc1cc(F)c(O)c(F)c1

- Papp (in vitro [10]): 18.9 ×10⁻⁶ cm/s
- logD (physchem [11]): 2.42
- solubility (physchem [9]): 90 µM
SMILES: O=C(CCCN1CCC(O)(c2ccc(Cl)cc2)CC1)c1ccc(F)cc1 [HALOPERIDOL]

- Papp (in vitro [7]): 0.82 ×10⁻⁶ cm/s
SMILES: Cc1nccn1-c1ccc(NC(=O)c2cc(C(F)(F)F)nn2-c2ccc3onc(N)c3c2)cc1

- microsomal CLint (in vitro [14]): 2 µL/min/mg
- microsomal CLint (in vitro [8]): 27 µL/min/mg
- solubility (physchem [9]): 4000 µg/mL
SMILES: CN(C)CCCCc1ccc(C2COC2)cc1

- half-life (clinical): 20 min
SMILES: CC#CCC(C)[C@H](O)/C=C/[C@@H]1[C@H]2C/C(=C/CCCC(=O)O)C[C@H]2C[C@H]1O (stereo not given in full) [ILOPROST]

- logP (physchem [5]): 1.23
SMILES: O=C(O)Cn1ccc(C(=O)c2ccccc2)c1

- pKa (physchem [1]): 0.37
SMILES: O=c1c(O)c(-c2ccccc2)c1=O

- half-life (in vitro [15]): 18 min
- pKa (physchem [1]): 9.27
- half-life (in vitro [13]): 65 min
- Papp (in vitro [10]): 19.8 ×10⁻⁶ cm/s
- logD (physchem [11]): 2.77
- solubility (physchem [9]): 78 µM
SMILES: O=C(CCCN1CC[Si](O)(c2ccc(Cl)cc2)CC1)c1ccc(F)cc1

- logD (physchem [16]): 1.8
- logP (physchem [5]): 4.3
- microsomal CLint (in vitro [14]): 16 µL/min/mg
- microsomal CLint (in vitro [8]): 417 µL/min/mg
- solubility (physchem [9]): < 1 µg/mL
SMILES: CN(C)CCCCc1ccc(C(C)(C)C)cc1

- microsomal CLint (in vitro [8]): 43 µL/min/mg
- solubility (physchem [9]): 4400 µg/mL
SMILES: CN(C)CCCCc1ccc(C2(C)COC2)cc1

- microsomal CLint (in vitro [14]): 13 µL/min/mg
- microsomal CLint (in vitro [8]): 580 µL/min/mg
- solubility (physchem [9]): 57 µg/mL
SMILES: CN(C)C1(CCCc2ccc(C(C)(C)C)cc2)COC1

- microsomal CLint (in vitro [14]): 6 µL/min/mg
- microsomal CLint (in vitro [8]): 13 µL/min/mg
- solubility (physchem [9]): 4100 µg/mL
SMILES: CN(C)CCC1(Cc2ccc(C(C)(C)C)cc2)COC1

- half-life (in vivo [17]): 3.5 h
SMILES: Cc1ccc(-c2cc(C(F)(F)F)nn2-c2ccc(S(N)(=O)=O)cc2)cc1 [CELECOXIB]

- half-life (in vivo [17]): 221 h
SMILES: CS(=O)(=O)c1ccc(-n2nc(C(F)(F)F)cc2-c2ccc(F)cc2)cc1 [SC-58125]

- Papp (in vitro [7]): < 0.1 ×10⁻⁶ cm/s
SMILES: Cc1nccn1-c1ccc(NC(=O)c2cc(C(F)(F)F)nn2-c2ccc3onc(N)c3c2)c(C#N)c1
